Values quoted from earlier work as cited in patent US20230416219A1, “R-MDMA CRYSTAL FORMS” (Mind Medicine, Inc., priority 2022, published 2023).

Tests used:
[1] = in vivo
5-HT2A receptors = 5-HT2A receptors (Homo sapiens, UniProt P28223)
[2] = tested on: parkinsonian animal model
SERT = SERT (Homo sapiens, UniProt P31645)
DAT = DAT (Homo sapiens, UniProt Q01959)
DAT, sequence (Q01959 whole entry, species assumed): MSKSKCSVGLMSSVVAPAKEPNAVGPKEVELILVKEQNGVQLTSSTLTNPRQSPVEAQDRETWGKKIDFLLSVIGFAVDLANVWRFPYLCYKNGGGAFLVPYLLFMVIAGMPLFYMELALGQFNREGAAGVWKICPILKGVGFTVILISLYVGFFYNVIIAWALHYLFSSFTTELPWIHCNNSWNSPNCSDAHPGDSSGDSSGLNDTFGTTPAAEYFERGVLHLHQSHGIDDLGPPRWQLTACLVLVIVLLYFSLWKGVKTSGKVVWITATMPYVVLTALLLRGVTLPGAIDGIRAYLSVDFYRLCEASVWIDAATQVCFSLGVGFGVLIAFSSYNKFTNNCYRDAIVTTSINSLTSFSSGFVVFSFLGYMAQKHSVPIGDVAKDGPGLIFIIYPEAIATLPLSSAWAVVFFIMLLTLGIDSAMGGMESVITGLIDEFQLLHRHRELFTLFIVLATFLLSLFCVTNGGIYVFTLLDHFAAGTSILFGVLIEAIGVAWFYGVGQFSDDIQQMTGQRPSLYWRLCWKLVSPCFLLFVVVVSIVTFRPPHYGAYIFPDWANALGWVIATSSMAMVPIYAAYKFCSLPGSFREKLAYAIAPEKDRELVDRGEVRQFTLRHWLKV

5-HT2A receptors, sequence (P28223 whole entry): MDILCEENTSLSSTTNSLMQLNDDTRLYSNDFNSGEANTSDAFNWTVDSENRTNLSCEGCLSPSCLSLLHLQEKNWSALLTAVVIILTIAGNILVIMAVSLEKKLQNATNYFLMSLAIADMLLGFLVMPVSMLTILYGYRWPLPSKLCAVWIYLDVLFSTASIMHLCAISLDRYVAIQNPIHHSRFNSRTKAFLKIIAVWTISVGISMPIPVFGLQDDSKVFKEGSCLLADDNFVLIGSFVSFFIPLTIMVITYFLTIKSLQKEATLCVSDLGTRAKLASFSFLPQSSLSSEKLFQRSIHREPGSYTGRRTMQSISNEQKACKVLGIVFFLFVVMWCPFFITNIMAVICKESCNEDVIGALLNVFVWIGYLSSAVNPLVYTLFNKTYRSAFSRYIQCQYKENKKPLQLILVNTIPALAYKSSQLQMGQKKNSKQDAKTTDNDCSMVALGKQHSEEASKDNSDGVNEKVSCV
SERT, sequence (P31645 whole entry, species assumed): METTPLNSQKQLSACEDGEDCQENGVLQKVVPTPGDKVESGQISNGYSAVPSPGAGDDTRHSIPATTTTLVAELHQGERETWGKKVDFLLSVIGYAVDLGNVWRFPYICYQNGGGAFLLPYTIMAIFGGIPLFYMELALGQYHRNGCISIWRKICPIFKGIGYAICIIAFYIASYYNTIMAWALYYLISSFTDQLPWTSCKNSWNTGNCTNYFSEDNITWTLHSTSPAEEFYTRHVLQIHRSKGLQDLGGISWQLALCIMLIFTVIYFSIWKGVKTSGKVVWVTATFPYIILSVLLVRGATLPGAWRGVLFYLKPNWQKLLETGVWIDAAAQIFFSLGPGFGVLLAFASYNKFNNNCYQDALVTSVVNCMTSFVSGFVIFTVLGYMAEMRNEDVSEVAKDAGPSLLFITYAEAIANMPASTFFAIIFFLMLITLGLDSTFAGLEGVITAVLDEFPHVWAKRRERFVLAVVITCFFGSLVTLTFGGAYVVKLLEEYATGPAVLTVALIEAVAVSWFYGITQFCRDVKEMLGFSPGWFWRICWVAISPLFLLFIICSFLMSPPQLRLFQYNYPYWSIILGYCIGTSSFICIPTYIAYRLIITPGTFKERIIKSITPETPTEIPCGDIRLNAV

| Structure (SMILES) | hyperthermia [1] | selectivity for 5-HT2A receptors (5-HT2A receptors) | duration of good ON-time [2] | severity of peak-dose dyskinesia [2] | affinity for SERT (SERT) | affinity for DAT (DAT) | total duration of ON-time [2] |
| --- | --- | --- | --- | --- | --- | --- | --- |
| CN[C@H](C)Cc1ccc2c(c1)OCO2 [R-MDMA] | does not produce hyperthermia | selective compound for 5-HT2A receptors | increased | decreased |  |  |  |
| CN[C@@H](C)Cc1ccc2c(c1)OCO2 [S-MDMA] |  |  |  | exacerbated | high affinity | moderate affinity | extended |
